Measurements from patent US20250388597A1, “BIFUNCTIONAL PHOTOCROSSLINKING PROBES FOR COVALENT CAPTURE OF PROTEIN-NUCLEIC ACID COMPLEXES IN CELLS” (UNIVERSITY OF SOUTHERN CALIFORNIA, priority 2022, published 2025).
Entries after “also recorded” stand apart in the source; their conditions may differ.

Key:
DNA binding by NFAT1 = molecular target: T1, DNA binding by NFAT1 (Homo sapiens, UniProt Q13469); assay: Native EMSA of the effect on DNA binding by NFAT1; type: biochemical
T1 construct: human NFAT1 protein (residue 399-676, NFAT1-DBD)
T1 sequence (Q13469 399-676): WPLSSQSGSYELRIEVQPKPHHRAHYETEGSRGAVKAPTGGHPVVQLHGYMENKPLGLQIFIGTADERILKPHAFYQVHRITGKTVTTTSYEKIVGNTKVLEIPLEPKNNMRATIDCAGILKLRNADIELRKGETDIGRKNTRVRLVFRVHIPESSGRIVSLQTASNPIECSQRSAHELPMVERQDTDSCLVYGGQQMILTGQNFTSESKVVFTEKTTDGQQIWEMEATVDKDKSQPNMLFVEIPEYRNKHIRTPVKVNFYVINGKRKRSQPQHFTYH
Description: All binding reactions contain 10 μM 27 mer dsDNA (5′6-FAM labeled) with a NFAT-binding site, and various combinations of NFAT1 protein (14 μM), FA (1% v/v), 4AMT-LC-SDA (20 μM), with or without UV illumination (365 nm, LED, 30 Watt, sample distance 2 cm, exposure time 15 min at 4 degree C.). 10 μl of the binding reaction is run on a 10% PAGE 0.5×TBE gel. The same gel was visualized by FAM fluorescence for DNA (top) and by Coomassie blue stain for protein (bottom). The higher smearing bands in lane 3, 8, 9, and 10 are most likely non-specific protein complexes often seen when an excessive amount of protein is used to ensure all DNA is bound.
The binding reactions were performed in a buffer of 20 mM Hepes pH 7.6, 150 mM NaCl, 1 mM DTT, 12% glycerol. Typically protein and DNA are mixed to bind at room temperature for 30 min, followed by addition of BFPX probes for an additional 15 min and then UV illumination. In the case of FA treatment, the reaction time is 10 min at room temperature and then quenched by 250 mM glycine. When included (as indicated by a positive sign), the binding reaction contains 10 μM 27 mer dsDNA (Cy5-labeled) with a NFAT-binding site (the antigen receptor response element 2, ARRE2, from the IL-2 promoter, 5′-Cy5-[sequence]-3′ (SEQ ID NO: 2), the complementary strand is not labeled), 24 μM of the DNA binding domain (DBD) of human NFAT1 protein (residue 399-676, NFAT1-DBD). The UV illumination (as indicated by a positive sign) was carried out using a LED Chip (21.4 mm×21.4 mm, 365-370 nm, 30 Watt, sample distance 2 cm, exposure time 2-15 min at 4 degree C., here the exposure time is 15 min). Half of the binding reaction (7.5 μl) was run on a 10% PAGE 0.5×TBE gel and visualized by Cy5 fluorescence on DNA. The small amount of single stranded DNA is due to incomplete annealing. The higher smearing bands are most likely non-specific protein complexes. Neither of these experimental imperfections affected the main conclusion of this experiment because the double stranded-DNA bands and the specific NFAT-DNA complex bands (the middle sharp bands) are well defined and can be monitored without the interference of the other bands.
The presence of both DNA and protein in the same shifted band can be checked by the FAM fluorescence signal (top) and Coomassie stain (bottom), respectively (free NFAT is positively charged and not observable under the EMSA condition).

MEF2A/DNA complex = molecular target: T2, MEF2A/DNA complex (Homo sapiens, UniProt Q02078); assay: In vitro photo-crosslinking of assembled MEF2/DNA complex, read on denaturing SDS/urea gel or agarose gel; type: biochemical; conditions: for selectivity for DNA binding protein versus non-DNA binding protein BSA: BSA under the same condition; for formation of covalent MEF2/DNA crosslinked complex: probe + UV, denaturing gel
T2 construct: human MEF2A DBD (residues 2-95); made in house
T2 sequence (Q02078 2-95): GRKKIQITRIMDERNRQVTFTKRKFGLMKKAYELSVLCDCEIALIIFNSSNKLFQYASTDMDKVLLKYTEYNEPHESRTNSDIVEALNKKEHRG
Source text: In vitro assays have confirmed the success and the efficiency of the demo probe (AMT-LC-SDA) in crosslinking double strand DNA of various contents and DNA-binding protein human myocyte enhancer factor 2A (MEF2A) (1-95 aa) (FIG. 5C-FIG. 5E). The solid crosslinking is confirmed for the probe with UV photo crosslinking conditions by denaturing or digestive approaches such as running with 8.3 M urea gel, SDS gel, combined with sample with overnight digestion of proteinase K at 65 Celsius and denatured at high temperature of 95 Celsius with SDS loading dye. […] Under these harsh evaluation conditions, the protein got digested on the crosslinking complex thoroughly, yet the remaining crosslinked amino acids residuals still have made the DNA to be in a larger size and shifted clearly compared to other controls, which is indicated by the bold shaped arrow. Agarose gel was also used for its bigger pore size to estimate the crosslinking efficiency (UV 2 hrs), estimated by the amount of the left free DNA, our probe has reached around 30-60% efficiency (FIG. 5E), which is much higher than the UV-initiated protein DNA crosslinking without the use of a probe (10-20%) as reported in Nature Communications, volume 11, Article number: 3019 (2020). […] This further supports the idea of applying this probe for replacement of formaldehyde, it crosslinks the protein only within the proximity of nucleic acids, thereby largely reducing the random protein-protein crosslinking noise and helps to preserve the native state of protein epitopes.
The BFPX probe 4AMT-LC-SDA was synthesized with good yield by the NHS-amine chemistry using psoralen and diazirine derivatives (FIG. 5A, FIG. 5B). To test its photo crosslinking ability, human transcription factor MEF2A (the MADS-box/MEF2 domain) and double strand DNA containing a MEF2 binding site were used. We first used electrophoresis mobility shift assay (EMSA) to validate the activity of the purified recombinant MEF2A DNA-binding domain. After finding out the optimal protein to DNA ratio, the in vitro assembled MEF2/DNA complex was then subject to photocrosslinking in the presence or absence of the 4AMT-LC-SDA probe with or without UV illumination. Multiple other control experiments were carried out in parallel to test the specificity of photocrosslinking between the DNA and MEF2. Specifically, parameters such as protein/DNA amounts (1:[…]), ratio, UV time (10 m to 4 hrs), wavelength (320 to 360 nm), LV source (mercury long lamp, LED) and their distance to the reaction mixture have been optimized along the course. The MEF2 Protein and DNA were incubated first to mimic an in vivo binding mode and stoichiometry, and then the mixture was incubated with our 4AMT-LC-SDA probe to undergo UV illumination. The results were evaluated by running denaturing gels (SDS in FIG. 5D, or Urea in FIG. 5C) against the high temperature denatured reaction mixtures and checking the respective protein (silver stain) or DNA (FAM label) signals. To further rule out any other possible false positiveness during loading, proteinase K digestion was applied to all the samples including the negative controls with SDS at 65 degrees.

NFAT1/DNA complex = molecular target: T3, NFAT1/DNA complex (Homo sapiens, UniProt Q13469); assay: In vitro photo-crosslinking of assembled NFAT1/DNA complex, denaturing SDS gel; type: biochemical
T3 construct: human NFAT1 protein (residue 399-676, NFAT1-DBD)
T3 sequence (Q13469 399-676): T1 sequence (Q13469 399-676)
Description: The probe binding and UV crosslinking were carried out as described in FIG. 5G and FIG. 7. The crosslinked complexes (lane 3 and lane 6) were further treated with DTT (100 mM, heat 50 degree C. for 30 min). The reaction mixtures were run on SDS gel and visualized by FAM fluorescence for DNA (top) and by Coomassie blue stain for protein (bottom) as described in FIG. 7. FIG. 7 depicts denaturing SDS gel analysis of covalent capture of in vitro assembled MEF2/DNA and NFAT1/DNA complexes by the BFPX probe, SPB-AAD. […] The protein/DNA complexes are incubated at room temperature for 30 min, and treated with various combination of BFPX probe (SPB-AAD) and UV illumination as described in FIG. 5G. […] The reaction mixtures were added SDS loading dye (2% SDS), boil for 10 min, and run on SDS gel (Bio-Rad Any Kd gradient gel). The same gel was visualized by FAM fluorescence for DNA (top) and by Coomassie blue stain for protein (bottom). FIG. 8C depicts denaturing SDS gel analysis of covalent capture of in vitro assembled MEF2/DNA and NFAT1/DNA complexes by the BFPX probe, SPB-PEG3-AAD. […] The reaction mixtures were run on SDS gel and visualized by FAM fluorescence for DNA (top) and by Coomassie blue stain for protein (bottom) as described in FIG. 7. […] Typically protein and DNA are mixed to bind at room temperature for 30 min, followed by addition of BFPX probes for an additional 15 min and then UV illumination. In the case of FA treatment, the reaction time is 10 min at room temperature and then quenched by 250 mM glycine. […] The UV illumination (as indicated by a positive sign) was carried out using a LED Chip (21.4 mm×21.4 mm, 365-370 nm, 30 Watt, sample distance 2 cm, exposure time 2-15 min at 4 degree C., here the exposure time is 15 min). […] The small amount of single stranded DNA is due to incomplete annealing. The higher smearing bands are most likely non-specific protein complexes. Neither of these experimental imperfections affected the main conclusion of this experiment because the double stranded-DNA bands and the specific NFAT-DNA complex bands (the middle sharp bands) are well defined and can be monitored without the interference of the other bands. […] The gel was visualized by Cy5 fluorescence for DNA. FIG. 12E depicts further characterization of BFPX crosslinking of NFAT1/DNA complexes using different DNA substrates and staining techniques. Two unlabeled DNA substrates containing a core NFAT-binding site and different flanking bases and sequence lengths ([…] ID NO: 4), 21 mer, c2: [NT] ID NO: 5), 16 mer) were used to bind the NFAT1-DBD as described in FIG. 12C. […] The reactions were then analyzed by SDS PAGE under denaturing condition as described in FIG. 12D. Because the DNA is unlabeled, the gel was stained using either cyanine-based dye (SYBR Safe) or Coomassie Blue stain (CB). […] The different size of the NFAT-c1DNA complexes (lane 2) and NFAT-c2DNA complexes (lane 4) was resolved by loading reactions of lane 2 (2a, 2b and 2c) and lane 4 (4a, 4b and 4c) as triplicates side-by-side on the same gel (lower panel) using either SYBR and CB stain. FIG. 12F depicts time course of BFPX crosslinking of NFAT1/DNA complexes. […] The reactions at different time points were then analyzed on SDS gel as described in FIG. 12D. […] When the UV exposure time is longer than 5 min, a significant amount of crosslinked NFAT-DNA complex can be formed with UV illumination without SPB-AAD.

GM12878 cell lines = assay: Crosslinking in suspension GM12878 cell lines, electrophoresis after sonication; type: cell-based; conditions: compared to the no-probe or no-UV controls; FIG. 5F
Source text: For this, we tested the prototype BFPX probe 4AMT-LC-SDA in the suspension GM12878 cell lines.

With Cc1oc2c(C)c3oc(=O)cc(C)c3cc2c1CNC(=O)CCCCCNC(=O)CCC1(C)N=N1 [4AMT-LC-SDA] the “effect on the DNA binding by NFAT1” value (DNA binding by NFAT1; FIG. 5G, FA 1% v/v, 4AMT-LC-SDA 20 μM with or without UV 365 nm) was “did not affect”, the “effect on NFAT1 protein” value (DNA binding by NFAT1; with and without UV365, data not shown) was “did not affect NFAT1 protein” and the “selectivity for DNA binding protein versus non-DNA binding protein BSA” value (MEF2A/DNA complex) was “did not show any signs of forming crosslink with the DNA”. The “selectivity for DNA binding protein versus non-DNA binding protein BSA” value (MEF2A/DNA complex; listed as AMT-LC-SDA) was “only MEF2A sample shows consumption of DNA substrate by crosslinking”, the “photo crosslinking efficiency of the MEF2-DNA complex” value (MEF2A/DNA complex; agarose gel, comparison of band intensities) was “around 50%” and the “crosslinking efficiency, estimated by the amount of the left free DNA” value (MEF2A/DNA complex; agarose gel, UV 2 hrs, dsDNA + MEF2A (1-95 aa)) was 30-60%. The “formation of covalent MEF2/DNA crosslinked complex” value (MEF2A/DNA complex) was “successful photo crosslink complex between protein and DNA; also recorded: highly efficient crosslinking”, the “formation of covalent MEF2/DNA crosslinked complex” value (MEF2A/DNA complex; listed as AMT-LC-SDA) was “the crosslinking of protein and nucleic acids takes place” and the “effect of DTT treatment on the crosslinked NFAT-DNA complex” value (NFAT1/DNA complex; 25 μM probe, DTT 100 mM, 50 degree C., 30 min, FIG. 5H) was “little effect”. The “formation of covalent NFAT1/DNA crosslinked complex stable under denaturing SDS-PAGE” value (NFAT1/DNA complex; probe + UV 365 nm, 2% SDS, boil 10 min) was “highly efficient crosslinking; also recorded: crosslinked NFAT to its DNA substrate efficiently” and the “crosslink effect in cells” value (GM12878 cell lines) was “good crosslink effect”.
